Assays:
[1] = system: TLR4-mediated inflammatory signaling; settings: SAR study of C34 analogs; cited from earlier work
[2] = system: TLR4; settings: enterocytes and macrophages in vitro; cited from earlier work
[3] = system: systemic inflammation; settings: mouse models of endotoxemia and necrotizing enterocolitis; cited from earlier work
[4] = target: T1, TLR4 co-receptor MD-2 (Homo sapiens, UniProt Q9Y6Y9); settings: cited from earlier work
T1 sequence (Q9Y6Y9 19-160): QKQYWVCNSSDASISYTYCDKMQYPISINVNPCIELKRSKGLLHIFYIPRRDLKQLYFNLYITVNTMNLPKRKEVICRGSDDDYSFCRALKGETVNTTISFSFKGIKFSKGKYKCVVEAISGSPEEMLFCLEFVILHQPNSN

[5] = system: LPS signaling; settings: human ileum resected from infants with NEC; cited from earlier work
[6] = system: LPS-induced brain injury; test: LPS-induced brain injury in a neonatal rabbit model of cerebral palsy; type: in vivo
Protocol: The therapeutic efficacy of G4-PAMAM-S--S-NAC dendrimer conjugate was evaluated after two days of animal treatment with lipopolysaccharide (LPS) to induce white matter injury and hypomyelination in the developing rabbit brain (an animal model of Cerebral Palsy). […] This supports a conclusion that the G4-PAMAM-S--S-NAC traversed across the BBB. The targeted delivery of NAC from dendrimer complex to actived microglial cells improved the motor deficits and attenuated recovery from the LPS-induced brain injury in a neonatal rabbit model of cerebral palsy.
(§1) Treatment with G4-PAMAM-S--S-NAC dendrimer complexes reduced white matter injury and microglia activation. […] This activity of the dendrimer-NAC conjugates may be attributed to its ability to interfere with the early inflammatory responses by blocking or modifying the signal transduction factor NF-.kappa.B and nitrotyrosine, thereby modulating cellular activation. 6 and 8 arm PEG-NAC conjugates released 74% of NAC in the intracellular GSH concentration (2 and 10 mM), within 2 hours. At a concentration range of between 0.008-0.8 mM, the conjugates were nontoxic to the microglial cells. […] At the highest concentration (5 mM), the free drug reduced the H2O2 levels and nitrite levels by 30-40%, whereas the conjugates reduced the H2O2 and nitrite levels by more than 70%. […] PEGylated NAC is a dendrimer complex with utility for the pharmaceutical industry, as PEGs are approved for human use and this device addresses limitations of NAC and provides greater efficacy.

[7] = system: microglial cells; test: GSH depletion, ROS, H2O2 and NO/nitrite production; type: cell-based; settings: highest concentration (5 mM)
Protocol: as §1

[8] = free drug; cited from earlier work
[9] = compared to kits treated with saline

In the case of `CC(=O)N[C@H]1[C@@H](OC(C)C)O[C@H](CO)[C@H](O)[C@@H]1O` [compound 17, isopropyl 2-acetamido-α-galactoside], the “efficacy relative to C34 series” value [1] is given as “more efficacious”.

For `CC(=O)N[C@H]1[C@@H](OC(C)C)O[C@H](COC(C)=O)[C@@H](OC(C)=O)[C@@H]1OC(C)=O` [C34], the TLR4 inhibition [2] is listed as “inhibits”, the systemic inflammation [3] is listed as “reduces” and the “docking fit to hydrophobic internal pocket of MD-2” value [4] is listed as “tight fit”. The LPS signaling ex-vivo [5] was “inhibited”.

In the case of `CC(=O)N[C@@H](CS)C(=O)O` [NAC, N-acetyl cysteine], the “dose eliciting identical responses” value ([6]; LPS-induced brain injury) is reported as 100 mg/kg, the fetal inflammation response [6, 9] is reported as “decrease” and the motor deficits [6, 9] is reported as “improvement”. For the same compound, the “reduction of H2O2 levels” value [7] was 30-40%, the “reduction of nitrite levels” value [7] was 30-40% and the bioavailability [8] was “low”. For the same compound, the plasma protein binding [8] was “very high”.

Reference: patent US20220080056A1, “DENDRIMER COMPOSITIONS AND USE IN TREATMENT OF NECROTIZING ENTEROCOLITIS AND OTHER GASTROINTESTINAL DISORDERS” (The Johns Hopkins University, priority 2015, published 2022)
